Reference: patent publication US20250213622A1 (priority 2022, published 2025)
Counter-ions that a name gives are not always drawn.

Key:
Assay type in all cases: in vivo, C57BL/6J mice
[1] = tested on: subacute MPTP mouse model; assay: Open field test, total movement distance, subacute MPTP mouse model; details: for Total movement distance in the open field test: Selegiline 0.5 mg/kg/d i.p.
Description: (§1) The mice were weighed and recorded, and injected subcutaneously at the back of the neck at 20 mg/kg, once a day for 5 consecutive days. Subsequent experiments were performed on the 1st, 3rd, 7th and 14th days after the last administration.
(§2) 128 healthy adult mice were randomly divided into six groups according to body weight, including normal control (Sham) group (n=20), MPTP model group (n=28), low-dose Lepalvir (10 U/kg/d) treatment group (n=20), medium-dose Lepalvir (20U/kg/d) treatment group (n=20), high-dose Lepalvir (40 U/kg/d) treatment group (n=20) and positive control drug Selegiline (0.5 mg/kg/d) treatment group (n=20). Among them, mice in the Lepalvir and Selegiline treatment groups were injected with corresponding doses intraperitoneally 1 hour after the first MPTP administration, and continued for 7 or 14 days, once a day. Mice in the MPTP model group were given an equal volume of normal saline (0.1 mL/10 g). Mice in the sham group were only given an equal volume of normal saline (0.1 mL/10 g).
(§3) Behavioral assessment was performed on the 1st, 3rd, 7th and 14th days after the last administration of MPTP.
The open field test was used to evaluate the autonomous movement ability of mouse. The open field apparatus was made of opaque blue plastic and was 60 cm×60 cm×45 cm in size. During the test, each mouse was placed into the box from the central area, and the movement trajectory of each mouse within 5 minutes was recorded at the same time. The total movement distance was calculated using software (Clever Sys Inc., VA, USA). After each mouse was tested, the open field area was wiped with 75% ethanol to prevent the smell of the previous mouse from affecting the next mouse.

[2] = tested on: subacute MPTP mouse model; assay: Pole climbing test (T-Turn, T-TLA), subacute MPTP mouse model; details: Selegiline 0.5 mg/kg/d i.p.
Description: as §1, §2, §3
The pole climbing test was used to evaluate the motor coordination function of mouse. The pole used was 1 cm in diameter and 50 cm in height. A wooden ball with a diameter of 1.2 cm was fixed to the top of the pole. The pole was wrapped with anti-slip tape to prevent the mouse from slipping. The mouse was placed on the top of the pole with its head facing up. When the mouse started to […], the timer started and the time it took for the mouse to cross the top of the pole (T-Turn) from the start of the movement and the time it took for the mouse to climb down to the bottom with four paws landing on the ground from the start of the movement (T-TLA) were recoded. Before the formal test, three consecutive trainings were required for each mouse. During the test, three consecutive measurements were required, and the shortest time was selected.

[3] = tested on: subacute MPTP mouse model; assay: Rotarod test, latency, subacute MPTP mouse model; details: for Latency time: Selegiline 0.5 mg/kg/d i.p.
Description: as §1, §2, §3
The rotarod test was used to evaluate the motor balance and limb coordination of mouse. The mouse was placed on the drum of the Rotarod tester, and the speed was set to increase uniformly from 5 rpm/min to 25 rpm/min within 2 minutes. When the mouse fell from the drum to the sensing area below, an infrared sensor would receive the signal and record the time the mouse moved on the drum of the instrument. Before the formal test, three consecutive trainings were required for each mouse. During the test, three consecutive measurements are required, and the average falling time was selected (latency).

[4] = tested on: Nissl-positive neurons in the substantia nigra pars compacta; assay: Nissl staining, neuron count in substantia nigra pars compacta, subacute MPTP mouse model; details: for Number of Nissl-positive neurons in the substantia nigra pars compacta: Selegiline 0.5 mg/kg/d i.p.
Description: as §1, §2
(§4) On day 7 and day 14 after the last administration of MPTP respectively, half of the mice in each group were selected, anesthetized with 4% chloral hydrate, and perfused with saline +4% PFA to obtain brain tissue. After gradient dehydration in 20% (v/v) and 30% (v/v) sucrose solutions for 3 days respectively, the mouse brain tissue was embedded in OCT glue and frozen, and the Microtome Cryostat (Leica) was used to continuously slice the tissue (20 μm), and the brain slices of the relevant regions were collected, placed in freezing solution (glycerol: 0.01M PBS=1:1) and stored at −80° C. for use.
Nissl bodies are a type of basophilic substance in the cytoplasm that is widely found in various neurons, and thus the number of neurons in the relevant brain regions was calculated by Nissl staining. Staining was performed using the Nissl staining kit.
(§5) Immunohistochemical positive cells were counted using the Stereo Investigator (MBF bioscience) system and the number of Nissl body-positive cells and TH+ cells in the substantia nigra pars compacta were calculated. […]

[5] = tested on: TH-positive neurons in the substantia nigra pars compacta; assay: TH (tyrosine hydroxylase) staining, neuron count in substantia nigra pars compacta, subacute MPTP mouse model; details: for Number of TH-positive neurons in the substantia nigra pars compacta: Selegiline 0.5 mg/kg/d i.p.
Description: as §1, §2, §4
TH mainly marks dopaminergic neurons in the substantia nigra pars compacta. […] The midbrain slices were obtained, washed once with 0.01 M PBS for 10 min, and then incubated with 3% H2O2 for 15 min to remove endogenous peroxidase activity. […]
as §5

[6] = positive control Selegiline 0.5 mg/kg/d, day 1, 3, 7, and 14
[7] = positive control Selegiline 0.5 mg/kg/d, day 7 and 14

In the case of `C#CCN(C)[C@H](C)Cc1ccccc1` [Selegiline, Selegiline hydrochloride], the “Total movement distance in the open field test” value (“Total movement distance” below) ([1]; 1 day after last MPTP) was 1269 ± 138 mm, the “Total movement distance” value ([1]; 3 days after last MPTP) was 1359 ± 68 mm and the “Total movement distance” value ([1]; 7 days after last MPTP) was 684 ± 68 mm. For the same molecule, the “Total movement distance” value ([1]; 14 days after last MPTP) was 578 ± 51 mm, the “Effect on MPTP-induced reduction in total distance traveled (in words)” value [1, 6] was “significantly improved” and the T-TLA ([2]; Day 1 after last MPTP) was 9.23 ± 0.65 s. The T-Turn ([2]; Day 1 after last MPTP) was 1.57 ± 0.10 s, the T-TLA ([2]; Day 3 after last MPTP) was 5.96 ± 0.49 s and the T-Turn ([2]; Day 3 after last MPTP) was 1.35 ± 0.09 s. The T-TLA ([2]; Day 7 after last MPTP) was 7.61 ± 0.91 s, the T-Turn ([2]; Day 7 after last MPTP) was 1.49 ± 0.14 s and the T-TLA ([2]; Day 14 after last MPTP) was 7.90 ± 1.17 s. It also gave a T-Turn ([2]; Day 14 after last MPTP) of 1.49 ± 0.20 s, a Latency time ([3]; Day 1 after last MPTP) of 160.2 ± 4.8 s and a Latency time ([3]; Day 3 after last MPTP) of 173.1 ± 2.2 s. For the same molecule, the Latency time ([3]; Day 7 after last MPTP) was 168.5 ± 3.5 s, the Latency time ([3]; Day 14 after last MPTP) was 166.7 ± 4.2 s and the “Effect on MPTP-induced shortening of rotarod latency (in words)” value [3, 6] was “significantly improved”. The “Number of Nissl-positive neurons in the substantia nigra pars compacta” value ([4]; Day 7 after last MPTP) was 10688 ± 458, the “Number of Nissl-positive neurons in the substantia nigra pars compacta” value ([4]; Day 14 after last MPTP) was 11024 ± 539 and the “Effect on MPTP-induced decrease in number of Nissl-stained positive neurons (in words)” value [4, 7] was “significantly improved”. For the same molecule, the “Number of TH-positive neurons in the substantia nigra pars compacta” value ([5]; Day 7 after last MPTP) was 9578 ± 441, the “Number of TH-positive neurons in the substantia nigra pars compacta” value ([5]; Day 14 after last MPTP) was 9670 ± 692 and the “Effect on MPTP-induced decrease in number of TH-positive neurons (in words)” value [5, 7] was “significantly improved”.
